According to patent US12016843B2, “Compositions and methods for the treatment of amyotrophic lateral sclerosis, parkinson's disease, parkinson's disease with dementia, dementia with lewy bodies, and multiple system atrophy” (priority 2019, dated 2024):

Columns and labels:
[1] = system: SOD1 G93A high copy transgenic mice; test: Forelimb grip strength test in SOD1 G93A mouse model of ALS; type: in vivo; details: 10 weeks on drug; for grip strength Mean Diff. (Dunnett's multiple comparisons test, Vehicle vs. 0.5 mg/kg): 0.5 mg/kg daily ip; for grip strength Mean Diff. (Dunnett's multiple comparisons test, Vehicle vs. 5.0 mg/kg): 5.0 mg/kg daily ip
Method: Study Design. Three experimental groups of n=20 (10 male, 10 female) SOD1 G93A high copy transgenic mice were dosed daily via intraperitoneal administration of vehicle control; (R)-2-amino-N—((S)-1-(((S)-5-amino-1-(3-benzyl-1,2,4-oxadiazol-5-yl)pentyl)amino)-3-(4-hydroxy-2,6-dimethylphenyl)-1-oxopropan-2-yl)-5-guanidinopentanamide (as its tris-HCl salt-(Ia)) at 0.5 mg/kg; or (R)-2-amino-N—((S)-1-(((S)-5-amino-1-(3-benzyl-1,2,4-oxadiazol-5-yl)pentyl)amino)-3-(4-hydroxy-2,6-dimethylphenyl)-1-oxopropan-2-yl)-5-guanidinopentanamide (as its tris-HCl salt—(Ia)) at 5.0 mg/kg. Animals were dosed beginning at 8 weeks of age and dosing was continued until humane end of life (defined by the inability of animal to right itself from either side within 30 seconds when placed on its side). Experimental endpoints and in-life collections and observations were as follows: • 1. Bodyweight measurement. Daily recording of weight. • 2. Neurological scoring. Weekly NeuroScore, a qualitative assessment of neurological disease progression based upon a five-point grading system. Scoring is defined as follows: • Score 0: Full extension of hind legs away from the lateral midline when the mouse is suspended by its tail, and the mouse can hold this extension for 2 seconds, being suspended 3 times consecutively. • Score 1: Collapse or partial collapse of the leg extension toward the lateral midline or trembling of hind legs during the tail suspension. • Score 2: Toes curl under at least twice during walking of 12 inches, or any part of the foot is dragging along the cage bottom or table. • Score 3: Rigid paralysis or minimal joint movement, the foot is not being used for forward motion. • Score 4: The mouse cannot right itself within 30 sec from either side. • 3. Grip strength test. Weekly forelimb grip strength, performed as follows: • a. Subjects are weighed and acclimated to the testing room for at least 60 min. • b. Equipment: Bioseb grip strength meter equipped with a grid for grasping that is suited for mice. • c. Mice are lowered towards the grid by their tails to allow for visual placing and for the mouse to grip the grid with their forepaws. • d. Subjects are firmly pulled horizontally away from the grid (parallel to the bench) for 3 consecutive trials with a brief (approximately 30 sec) rest period on the bench between trials. • e. The average force in grams of the 3 forepaw and 3 all-paws trials are analyzed with and without normalization to body weight. • 4. Retro-orbital blood collection. Bi-weekly retroorbital eye bleeds to determine drug exposure levels as well as levels of neurofilament light chain, a biomarker of axonal damage shown to correlate with ALS disease progression in human patients. Briefly, mice are sedated with isoflurane (5% induction, 2% maintenance) in O2. […]
Systemic administration of (R)-2-amino-N—((S)-1-(((S)-5-amino-1-(3-benzyl-1,2,4-oxadiazol-5-yl)pentypamino)-3-(4-hydroxy-2,6-dimethylphenyl)-1-oxopropan-2-yl)-5-guanidinopentanamide attenuates decline in muscle strength in ALS mouse model. As shown in FIG. 2A and Table 1A, systemic administration of (R)-2-amino-N—((S)-1-(((S)-5-amino-1-(3-benzyl-1,2,4-oxadiazol-5-yl)pentyl)amino)-3-(4-hydroxy-2,6-dimethylphenyl)-1-oxopropan-2-yl)-5-guanidinopentanamide (as its tris-HCl salt—(Ia)) attenuates the loss of grip strength in male SOD1 G93A transgenic mice. Grip strength values were determined at baseline (week 8) and through end of life for each animal. […]

[2] = system: SOD1 G93A high copy transgenic mice; test: Neurological scoring (NeuroScore) in SOD1 G93A mouse model of ALS; type: in vivo; details: vs vehicle
Method: (§1) Study Design. Three experimental groups of n=20 (10 male, 10 female) SOD1 G93A high copy transgenic mice were dosed daily via intraperitoneal administration of vehicle control; (R)-2-amino-N—((S)-1-(((S)-5-amino-1-(3-benzyl-1,2,4-oxadiazol-5-yl)pentyl)amino)-3-(4-hydroxy-2,6-dimethylphenyl)-1-oxopropan-2-yl)-5-guanidinopentanamide (as its tris-HCl salt-(Ia)) at 0.5 mg/kg; or (R)-2-amino-N—((S)-1-(((S)-5-amino-1-(3-benzyl-1,2,4-oxadiazol-5-yl)pentyl)amino)-3-(4-hydroxy-2,6-dimethylphenyl)-1-oxopropan-2-yl)-5-guanidinopentanamide (as its tris-HCl salt—(Ia)) at 5.0 mg/kg. Animals were dosed beginning at 8 weeks of age and dosing was continued until humane end of life (defined by the inability of animal to right itself from either side within 30 seconds when placed on its side). Experimental endpoints and in-life collections and observations were as follows: • 1. Bodyweight measurement. Daily recording of weight. • 2. Neurological scoring. Weekly NeuroScore, a qualitative assessment of neurological disease progression based upon a five-point grading system. […] The average force in grams of the 3 forepaw and 3 all-paws trials are analyzed with and without normalization to body weight. • 4. […]

[3] = system: mitochondrial respiration in brain homogenate from the infarcted area; test: Mitochondrial respiration (respiratory control ratio) in brain homogenate after endothelin-1 induced ischemic stroke; type: in vivo, Sprague Dawley rats; details: rats, ET-1 middle cerebral artery occlusion, 5 mg/kg sc at 24 and 4 hours prior to ischemia, measured 24 hours after onset
Method: Ischemic stroke was induced in Sprague Dawley rats via middle cerebral artery occlusion with the vasoconstrictive peptide endothelin-1 (ET-1; 240 pmol per injection). Compound Ia was administered to each rat at 24 and 4 hours prior to onset of ischemia via subcutaneous injection at 5 mg/kg. Mitochondrial respiration was measured in brain homogenate excised from the infarcted area 24 hours following the onset of ischemia using high resolution respirometry (OxyGraph 02K). Respiratory control ratio was calculated as complex I supported oxidative phosphorylation divided by Complex I linked leak respiration. Results are illustrated in FIG. 5B, ** p<0.01, one-way ANOVA.

[4] = system: SOD1 G93A high copy transgenic mice; test: Lifespan (survival to humane end of life) in SOD1 G93A mouse model of ALS; type: in vivo; details: vs vehicle control
Method: as §1

[5] = female SOD1 G93A mice, daily intraperitoneal

## Cc1cc(O)cc(C)c1C[C@H](NC(=O)[C@H](N)CCCNC(=N)N)C(=O)N[C@@H](CCCCN)c1nc(Cc2ccccc2)no1.Cl.Cl.Cl [Compound Ia, (R)-2-amino-N—((S)-1-(((S)-5-amino-1-(3-benzyl-1,2,4-oxadiazol-5-yl)pentyl)amino)-3-(4-hydroxy-2,6-dimethylphenyl)-1-oxopropan-2-yl)-5-guanidinopentanamide·3HCl]
[1]; female SOD1 G93A mice
  grip strength Mean Diff. (Dunnett's multiple comparisons test, Vehicle vs. 0.5 mg/kg): −6.081
  grip strength Mean Diff. (Dunnett's multiple comparisons test, Vehicle vs. 5.0 mg/kg): −7.905
[1]; male SOD1 G93A mice
  grip strength Mean Diff. (Dunnett's multiple comparisons test, Vehicle vs. 0.5 mg/kg): −0.7940
  grip strength Mean Diff. (Dunnett's multiple comparisons test, Vehicle vs. 5.0 mg/kg): −11.90
[1]; male SOD1 G93A mice, 5.0 mg/kg, p=0.08
  loss of grip strength: trend in protection from loss of grip strength
[2]; [5]
  progression of neurological symptom onset (five-point neurological score): no effects
[2]; male SOD1 G93A mice, 5.0 mg/kg daily intraperitoneal from 8 weeks of age, two-way ANOVA
  progression of neurological symptom onset (five-point neurological score): delayed the progression of neurological symptom onset
[3]
  mitochondrial respiration in brain (respiratory control ratio): restored mitochondrial respiration in brain
[4]; [5]
  lifespan: no effects
[4]; male SOD1 G93A mice, 5.0 mg/kg daily intraperitoneal
  lifespan: significantly increased
